Experimental data reported in US20240100012A1, “PHARMACEUTICAL DOSAGE FORM” (priority 2021, published 2024).

Columns and labels:
[1] = Solubility of escitalopram base in organic solvents; format: physicochemical
[2] = Aqueous solubility of escitalopram base; format: physicochemical; conditions: crystalline and/or oil forms

solubility in organic solvents ([1]; crystalline or oil, organic solvents such as N-Methyl-2-pyrrolidone (NMP) and Dimethyl sulfoxide (DMSO)): extremely high solubility
escitalopram content of solutions that can be prepared in organic solvents ([1]; oil forms of escitalopram base, organic solvents): more than 70 % wt
aqueous solubility [2]: low aqueous solubility
Structure (SMILES): CN(C)CCC[C@@]1(c2ccc(F)cc2)OCc2cc(C#N)ccc21 [escitalopram base, S-1-[3-(dimethylamino)propyl]-1-(4-fluorophenyl)-1,3-dihydro-5-isobenzofurancarbonitrile]
